Results published in patent US20250032624A1, “SMALL MOLECULE DEGRADATION METHODS FOR TREATING ALS/FTD” (University of Florida Research Foundation, Incorporated, priority 2021, published 2025).

How the values were obtained:
r(G4C2)8 = test: In vitro RNase L-mediated cleavage of 32P-labeled r(G4C2)8, gel analysis; type: biochemical; details: 10 μM and 20 μM compound, constant RNase L
Experimental: The 5′ end of r(G4C2)8 (SEQ ID NO: 1) (a model of r(G4C2)^exp) was radiolabeled with ^32P and purified on a denaturing polyacrylamide gel (15%), as previously described^31,32. After purification, labeled RNA (25 nM) was folded in 1×RNase L buffer (25 mM Tris-HCl, pH 7.4, and 100 mM NaCl) for 5 minutes at 95° C. The folded RNA was cooled to room temperature and 2-mercaptoethanol (7 mM final concentration), ATP (50 μM final concentration), and MgCl2 (10 mM final concentration) were added to the solution. Dilutions of compound in the folded RNA solution were then made and incubated for 15 minutes at room temperature. After the incubation, RNase L was added to a final concentration 50 nM. Samples were incubated at 37° C. overnight. Cleavage fragments were then separated on a denaturing 15% polyacrylamide gel, imaged by autoradiography (Typhoon FLA 9500), and quantified using the QuantityOne software (BioRad). All experiments were performed in duplicate.

C9orf72 intron 1 = test: C9orf72 transcript RT-qPCR in LCLs from healthy donors; type: cell-based, human
Experimental: Measuring Levels of C9orf72 and C9orf72 Variants by RT-qPCR. LCLs and iPSCs were seeded in 6-well plates (˜10^6 cells in 2 mL of Basal medium) and incubated overnight at 37° C. with 5% CO2. LCLs were then treated with compound for 4 days without media changes; patient-derived iPSCs were seeded at ˜80% confluency and treated, as described above. Treatment with either a G4C2-ASO or Control-ASO (100 nM) was used as a control. ASO transfection was achieved using Lipofectamine RNAiMax (Life Technologies), following the manufacturer's protocol. After 4 days of treatment (with either compound or ASO), total RNA was extracted using the Quick-RNA Miniprep Kit (Zymo Research). RNA was quantified via Nanodrop and ˜1 μg of total RNA was reverse transcribed using qScript (Quantbio), according to the manufacturer's guidelines. RT-qPCR was performed on a QuantStudio™ Real-Time PCR Instrument (Applied Biosystems) using Power SYBR Green Master Mix (Applied Biosystems). Expression levels of mRNAs were normalized to GAPDH. See Table 2 for a list of primers used.

[1] = test system: RAN translation, poly(GP); test: poly(GP) abundance in c9ALS/FTD iPSNs; type: cell-based, human; details: 500 nM, treated 17 days (day 15-32)
Experimental: Differentiated motor neurons (iPSNs) were derived from the iPSCs listed in the previous section. The differentiation process was based on a previously reported method with slight modifications^33,34. Briefly, iPSCs were plated into Matrigel-coated 100 mm dishes (30-40% confluence). Neuroepithelial induction was performed by replacing the Basal medium with Stage 1 medium [47.5% IMDM (Iscove's Modified Dulbecco's Medium), 47.5% F12 medium, 1% NEAA (Non-Essential Amino Acids) (Life Technologies), 2% B27 (Invitrogen), 1% N2 (Invitrogen), 1% PSA (Penicillin-Streptomycin-Amphotericin), 0.2 μM LDN193189 (Stemgent), 10 μM SB431542 (STEMCELL Technologies) and 3 μM CHIR99021 (Sigma-Aldrich)]. The medium was changed daily for 6 days, after which cells were detached from plates using Accutase (STEMCELL Technologies). Cells were seeded into 6-well plates (1.5×10^6 cells/well) in 3 mL of Stage 2 medium [Stage 1 medium supplemented with 0.1 μM All-trans RA (Sigma-Aldrich) and 1 μM SAG (Cayman Chemicals)]. […]
Meso Scale Discovery (MSD) Technology utilizes electrochemiluminescence to detect biomarkers, such as poly(GP), in protein samples. […] Protein samples were quantified using a Pierce™ Micro BCA Protein Assay Kit (Thermo Scientific).
Poly(GP) levels were measured by an electrochemical luminescent sandwich immunoassay. […]

`CCOC(=O)C1=C(Nc2ccccc2)S/C(=C\c2ccc(OCCOCCOCCOCCNC(=O)CCCOc3ccc4c(c3)c3cc5c(C(=O)N[C@H](C)CN(C)C)nccc5c(C)c3n4C)c(O)c2)C1=O` [ALS Compound Formula I] was tested, and the “cleavage of r(G4C2)8” value (r(G4C2)8) was “significant cleavage”, the “effect on C9orf72 intron 1 levels” value (C9orf72 intron 1) was “did not reduce” and the “reduction of poly(GP) abundance” value [1] was about 60%.
